Results as given in patent publication US20170121344A1 (Siga Technologies, Inc., priority 2009, published 2017).
Read-outs that look alike come from different tables or passages of the source. Values belong to the compound of their own block, whether it stands above or below them.

Tested on: Dengue-2 (Strain New Guinea C)
Experiment: Viral yield assay against Dengue-2 in Vero cells
Assay type: cell-based, Dengue virus
Settings: Dengue virus, read-out: Activity (EC50 class) against Dengue-2 Virus in Vero cells
Summary of the method: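 Vero cells were infected with dengue virus at an MOI of 0.1, treated with compound or DMSO vehicle, and kept at 37° C. Supernatant virus was harvested 48 hours post infection and titered on Vero cells, with EC50 derived from yield reduction.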

[1] = Vero cells, MOI 0.1, harvested 48 hours post infection

SMILES: Nc1c(C(=O)Nc2ccc(S(N)(=O)=O)cc2)sc2nc3c(cc12)CCC3 [Compound 144, 3-Amino-6,7-dihydro-5H-cyclopenta[b]thieno[3,2-e]pyridine-2-carboxylic acid (4-sulfamoyl-phenyl)-amide]
EC50 [1]: > 25 µM

SMILES: Cc1cc(C)c2c(N)c(C(=O)N3CCOCC3)sc2n1 [Compound 145, (3-Amino-4,6-dimethyl-thieno[2,3-b]pyridin-2-yl)-morpholin-4-yl-methanone]
EC50 [1]: > 25 µM

SMILES: COCc1cc(C)nc2sc(C(=O)Nc3cc(Br)cc4cccnc34)c(N)c12 [Compound 146, 3-Amino-4-methoxymethyl-6-methyl-thieno[2,3-b]pyridine-2-carboxylic acid (6-bromo-quinolin-8-yl)-amide]
EC50 (Vero, 48 h): > 25 µM

SMILES: CCN1CCCC(NC(=O)c2sc3nc(C)cc(COC)c3c2N)C1 (stereo not shown) [Compound 147, 3-Amino-4-methoxymethyl-6-methyl-thieno[2,3-b]pyridine-2-carboxylic acid (1-ethyl-piperidin-3-yl)-amide]
EC50 [1]: > 25 µM

SMILES: CCOC(=O)c1c(NC(=O)c2sc3nc(N)c(C#N)cc3c2N)sc2c1CCCC2 [Compound 148, 2-[(3,6-Diamino-5-cyano-thieno[2,3-b]pyridine-2-carbonyl)-amino]-4,5,6,7-tetrahydro-benzo[b]thiophene-3-carboxylic acid ethyl ester]
EC50 [1]: > 25 µM

SMILES: Cc1cc(C(F)(F)F)c2c(N)c(C(=O)Nc3cccc(C(F)(F)F)c3)sc2n1 [Compound 149, 3-Amino-6-methyl-4-trifluoromethyl-thieno[2,3-b]pyridine-2-carboxylic acid (3-trifluoromethyl-phenyl)-amide]
EC50 (Vero, 48 h): > 25 µM

SMILES: COCc1cc(C)nc2sc3c(=O)n(-c4cccc5ccccc45)nnc3c12 [Compound 150, 9-Methoxymethyl-7-methyl-3-naphthalen-1-yl-3H-pyrido[3′,2′:4,5]thieno[3,2-d][1,2,3]triazin-4-one]
EC50 (Vero, 48 h): > 25 µM

SMILES: COCc1cc(C)nc2sc3c(=O)n(-c4ccc(C)cc4C)nnc3c12 [Compound 151, 3-(2,4-Dimethyl-phenyl)-9-methoxymethyl-7-methyl-3H-pyrido[3′,2′:4,5]thieno[3,2-d][1,2,3]triazin-4-one]
EC50 [1]: > 25 µM

SMILES: N#Cc1ccc(NC(=O)c2sc3nc(N)c(C#N)cc3c2N)cc1 [Compound 152, 3,6-Diamino-5-cyano-thieno[2,3-b]pyridine-2-carboxylic acid (4-cyano-phenyl)-amide]
EC50 [1]: > 25 µM

SMILES: Cc1cc(C)c2c(n1)sc1c(=O)[nH]c(C)nc12 [Compound 153, 2,7,9-Trimethyl-3H-pyrido[3′,2′:4,5]thieno[3,2-d]pyrimidin-4-one]
EC50 [1]: > 25 µM

SMILES: Cc1ccc2c(n1)sc1c(=O)[nH]c(C)nc12 [Compound 154, 2,7-Dimethyl-3H-pyrido[3′,2′:4,5]thieno[3,2-d]pyrimidin-4-one]
EC50 [1]: > 25 µM

SMILES: COc1cc(-c2c(C#N)c(N)nc3sc(C(N)=O)c(N)c23)cc(OC)c1OC [Compound 155, 3,6-Diamino-5-cyano-4-(3,4,5-trimethoxy-phenyl)-thieno[2,3-b]pyridine-2-carboxylic acid amide]
EC50 [1]: > 25 µM

SMILES: COCc1cc(C)nc2sc3c(=O)n(-c4ccc(C(C)=O)cc4)nnc3c12 [Compound 156, 3-(4-Acetyl-phenyl)-9-methoxymethyl-7-methyl-3H-pyrido[3′,2′:4,5]thieno[3,2-d][1,2,3]triazin-4-one]
EC50 [1]: > 25 µM

SMILES: Cc1nc2sc(C(=O)Nc3ccc(Br)cc3)c(N)c2c(C)c1C [Compound 157, 3-Amino-4,5,6-trimethyl-thieno[2,3-b]pyridine-2-carboxylic acid (4-bromo-phenyl)-amide]
EC50 (Vero, 48 h): > 25 µM

SMILES: NC(=O)c1sc2nccc(Nc3ccccc3)c2c1N [Compound 158, 3-Amino-4-phenylamino-thieno[2,3-b]pyridine-2-carboxylic acid amide]
EC50 [1]: > 25 µM

SMILES: CN(C)c1ccnc2sc3c(=O)n(-c4ccccc4)cnc3c12 [Compound 159, 9-Dimethylamino-3-phenyl-3H-pyrido[3′,2′:4,5]thieno[3,2-d]pyrimidin-4-one]
EC50 (Vero, 48 h): > 25 µM

SMILES: CCc1c(C)nc2sc(C(N)=O)c(N)c2c1C [Compound 160, 3-Amino-5-ethyl-4,6-dimethyl-thieno[2,3-b]pyridine-2-carboxylic acid amide]
EC50 [1]: > 25 µM

SMILES: NC(=O)c1sc2nc(-c3ccccc3)ccc2c1N [Compound 161, 3-Amino-6-phenyl-thieno[2,3-b]pyridine-2-carboxylic acid amide]
EC50 [1]: > 25 µM

SMILES: COc1ccc(NC(=O)c2sc3nc(C)cc(C(F)(F)F)c3c2N)cc1 [Compound 162, 3-Amino-6-methyl-4-trifluoromethyl-thieno[2,3-b]pyridine-2-carboxylic acid (4-methoxy-phenyl)-amide]
EC50 [1]: > 25 µM

SMILES: COc1ccc(NC(=O)c2sc3nc(C)cc(C)c3c2N)cc1 [Compound 163, 3-Amino-4,6-dimethyl-thieno[2,3-b]pyridine-2-carboxylic acid (4-methoxy-phenyl)-amide]
EC50 (Vero, 48 h): > 25 µM

SMILES: NC(=O)c1sc2nc(-c3cccnc3)ccc2c1N [Compound 164, 3-Amino-6-pyridin-3-yl-thieno[2,3-b]pyridine-2-carboxylic acid amide]
EC50 [1]: > 25 µM

SMILES: Cc1ccc(NC(=O)c2sc3nc(C)cc(C(F)(F)F)c3c2N)cc1 [Compound 165, 3-Amino-6-methyl-4-trifluoromethyl-thieno[2,3-b]pyridine-2-carboxylic acid p-tolylamide]
EC50 [1]: > 25 µM

EC50 (Vero, 48 h): > 25 µM
SMILES: CN(C)c1ccnc2sc(C(N)=O)c(N)c12 [Compound 166, 3-Amino-4-dimethylamino-thieno[2,3-b]pyridine-2-carboxylic acid amide]

SMILES: CCN(CC)C(=O)c1sc2nc(C)cc(C)c2c1N [Compound 167, 3-Amino-4,6-dimethyl-thieno[2,3-b]pyridine-2-carboxylic acid diethylamide]
EC50 [1]: > 25 µM

SMILES: CC1(C)Cc2c(c(N3CCOCC3)nc3sc(C(N)=O)c(N)c23)CO1 [Compound 169, 1-Amino-8,8-dimethyl-5-morpholin-4-yl-8,9-dihydro-6H-7-oxa-3-thia-4-aza-cyclopenta[a]naphthalene-2-carboxylic acid amide]
EC50 (Vero, 48 h): > 25 µM

SMILES: COc1ccc(-c2c(C#N)c(N)nc3sc(C(N)=O)c(N)c23)cc1OC [Compound 170, 3,6-Diamino-5-cyano-4-(3,4-dimethoxy-phenyl)-thieno[2,3-b]pyridine-2-carboxylic acid amide]
EC50 (Vero, 48 h): > 25 µM

SMILES: NC(=O)c1sc2nc(N3CCOCC3)c3c(c2c1N)CCCC3 [Compound 171, 1-Amino-5-morpholin-4-yl-6,7,8,9-tetrahydro-thieno[2,3-c]isoquinoline-2-carboxylic acid amide]
EC50 (Vero, 48 h): > 25 µM

SMILES: Cc1cc(C)c2c(N)c(C(=O)Nc3ccc(Br)cc3)sc2n1 [Compound 172, 3-Amino-4,6-dimethyl-thieno[2,3-b]pyridine-2-carboxylic acid (4-bromo-phenyl)-amide]
EC50 (Vero, 48 h): > 25 µM

SMILES: Nc1c(C(=O)Nc2ccccc2)sc2nc3c(cc12)CCC3 [Compound 173, 3-Amino-6,7-dihydro-5H-cyclopenta[b]thieno[3,2-e]pyridine-2-carboxylic acid phenylamide]
EC50 [1]: > 25 µM

SMILES: CC1(C)Cc2nc3sc4c(=O)n(Cc5ccccc5)cnc4c3cc2CO1 [Compound 174, 2-Benzyl-8,8-dimethyl-8,9-dihydro-2H,6H-7-oxa-11-thia-2,4,10-triaza-benzo[b]fluoren-1-one]
EC50 [1]: > 25 µM

SMILES: Cc1ccc(NC(=O)c2sc3nc4c(cc3c2N)CCCCC4)cc1 [Compound 175, 3-Amino-6,7,8,9-tetrahydro-5H-1-thia-10-aza-cyclohepta[f]indene-2-carboxylic acid p-tolylamide]
EC50 [1]: > 25 µM

SMILES: COCc1cc(C)nc2sc(C(=O)NC3CCCCC3)c(N)c12 [Compound 176, 3-Amino-4-methoxymethyl-6-methyl-thieno[2,3-b]pyridine-2-carboxylic acid cyclohexylamide]
EC50 (Vero, 48 h): > 25 µM

SMILES: Nc1c(C(=O)Nc2ccc(F)cc2)sc2nc3c(cc12)CCC3 [Compound 177, 3-Amino-6,7-dihydro-5H-cyclopenta[b]thieno[3,2-e]pyridine-2-carboxylic acid (4-fluoro-phenyl)-amide]
EC50 [1]: > 25 µM

SMILES: Cc1cc(C)c2c(N)c(C(=O)Nc3ccccc3F)sc2n1 [Compound 178, 3-Amino-4,6-dimethyl-thieno[2,3-b]pyridine-2-carboxylic acid (2-fluoro-phenyl)-amide]
EC50 (Vero, 48 h): > 25 µM

SMILES: Cc1cccc(NC(=O)c2sc3nc4c(cc3c2N)CCC4)c1C [Compound 179, 3-Amino-6,7-dihydro-5H-cyclopenta[b]thieno[3,2-e]pyridine-2-carboxylic acid (2,3-dimethyl-phenyl)-amide]
EC50 (Vero, 48 h): > 25 µM

SMILES: Nc1c(C(=O)Nc2ccccc2F)sc2nc3c(cc12)CCC3 [Compound 180, 3-Amino-6,7-dihydro-5H-cyclopenta[b]thieno[3,2-e]pyridine-2-carboxylic acid (2-fluoro-phenyl)-amide]
EC50 (Vero, 48 h): > 25 µM

SMILES: Cc1cc(C)c2c(N)c(C(=O)Nc3cccc(C)c3C)sc2n1 [Compound 181, 3-Amino-4,6-dimethyl-thieno[2,3-b]pyridine-2-carboxylic acid (2,3-dimethyl-phenyl)-amide]
EC50 (Vero, 48 h): > 25 µM

SMILES: O=c1[nH]cnc2c1sc1nc(N3CCOCC3)c3c(c12)CCCC3 [Compound 182, 5-Morpholin-4-yl-1,2,3,4-tetrahydro-9H-7-thia-6,9,11-triaza-benzo[c]fluoren-8-one]
EC50 (Vero, 48 h): > 25 µM

SMILES: Cc1cc(C)c2c(N)c(C(=O)Nc3ccc(S(N)(=O)=O)cc3)sc2n1 [Compound 183, 3-Amino-4,6-dimethyl-thieno[2,3-b]pyridine-2-carboxylic acid (4-sulfamoyl-phenyl)-amide]
EC50 [1]: > 25 µM

SMILES: COc1ccc(NC(=O)c2sc3nc4c(cc3c2N)CCC4)cc1 [Compound 184, 3-Amino-6,7-dihydro-5H-cyclopenta[b]thieno[3,2-e]pyridine-2-carboxylic acid (4-methoxy-phenyl)-amide]
EC50 (Vero, 48 h): > 25 µM
